In one assay the test system is PC12 cells. Nature of the assay: PC12 cell serum withdrawal model, MTS cell survival assay. It is filed as cell-based. An excerpt:
Serum withdrawal is a cytotoxic environmental challenge that results in cell death in cultured cell lines as well as in primary cells of various tissue origins, including nerve cells. In particular, pheochromocytoma (PC) 12 cells have been widely employed as an in vitro neuronal cell model for a wide variety of neurodegenerative and cell death related disorders (Muriel, et al, Mitochondrial free calcium levels (Rhod-2 fluorescence) and ultrastructural alterations in neuronally differentiated PC12 cells during ceramide-dependent cell death, J. Comp. Neurol., 2000, 426(2), 297-315; Dermitzaki, et al, Opioids transiently prevent activation of apoptotic mechanisms following short periods of serum withdrawal, J. Neurochem., 2000, 74(3), 960-969; Carlile, et al, Reduced apoptosis after nerve growth factor and serum withdrawal: conversion of tetrameric glyceraldehyde-3-phosphate dehydrogenase to a dimer, Mol. Pharmacol., 2000, 57(1), 2-12). PC12 cells were cultured in sterile media (RPMI 1640) supplemented with 10% heat-inactivated horse serum and 5% fetal bovine serum (FBS). The culture medium also contained Penicillin-Streptomycin-Neomycin antibiotic (50 µg, 50 µg, 100 µg, respectively). Medium was exchanged every other day and the cells were passed in log phase near confluence.
The control cells were cultured in regular media without any treatment. An enantiomer of Formula 7 or Formula 8 (10 µM) was mixed well in the medium and then applied to the cells. For the 2 day assay, an enantiomer of Formula 7 or Formula 8 (10 µM) was only applied to the cells once at the time of serum withdrawal. For the 7 day assay, an enantiomer of Formula 7 or Formula 8 (10. mu.M) was applied to the cells at the time of serum withdrawal and every 48 hr thereafter when cells were changed with fresh new serum-free medium. In the serum withdrawal group, the cells were cultured in serum-free medium with no additional enantiomer of Formula 7 or Formula 8. Cell survival was determined by the 3-(4,5-dimethylthiazol-2-yl)-5-(3-[…])-2-(4-sulfophenyl)-2H-tetrazolium inner salt (MTS) assay at 2 or 7 days after serum withdrawal.
At the end of the experiment, cells were washed with fresh medium and incubated with MTS solution in a humidified 37° C. with 5% CO2 incubator for 1.5 hr. After the incubation period, the cells were immediately analyzed using a Softmax program (Molecular Devices). […] The assay is based on the cellular conversion of the tetrazolium salt, MTS, into a formazan that is soluble in tissue culture medium and measured directly at 490 nm in 96-well assay plates. The absorbance is directly proportional to the number of living cells in culture. The arbitrary absorbance reading in control cells is expressed as 100% survival rate.
On the technique in general: Formazan colour is commonly taken as a measure of viable cells.

For assay [1], the system named is rats subjected to li-pilo SE. The assay can be described thus: Latency to and frequency of spontaneous seizures by video recording, lithium-pilocarpine model (Example 2). The assay is classed as in vivo, rat. As to conditions: pilo-TC90 (90 mg/kg), Non epileptic subgroup (n = 5), no seizure over 150 days post-SE.
The subject of assay [2] is transient cerebral ischemia middle cerebral artery occlusion (MCAO) rat model. The assay can be described thus: Transient cerebral ischemia middle cerebral artery occlusion (MCAO) rat model, infarct volume. It is filed as in vivo. As to conditions: N 12; for Mean Infarct Volume ± S.E.M., Striatum: vehicle 79.4; for Mean Infarct Volume ± S.E.M., Cortex: vehicle 275.5; for Mean Infarct Volume ± S.E.M., Total Volume: vehicle 354.9. As for the experimental part:
The enantiomer of Formula 7 (test compound) was investigated in the transient cerebral ischemia middle cerebral artery occlusion (MCAO) rat model (as described in Nagasawa H. and Kogure K., Stroke, 1989, 20, 1037; and, Zea Longa E., Weinstein P. R., Carlson S, and Cummins R., Stroke, 1989, 20, 84) using male Wistar rats at 10 and 100 mg/kg (i.v.). MK 801 (Dizocilpine maleate; CAS Registry number 77086-22-7, a commercially available neuroprotectant compound) was used as a positive control (3 mg/kg, i.p.).
Rats (n=12) were randomly allocated to one of four experimental groups and were anesthetized. Blood flow from the internal carotid artery, anterior cerebral artery and posterior cerebral artery into the middle cerebral artery was blocked by this procedure. One hour after blockage, animals were treated over a 1 hour period with vehicle (administered i.v. over the one hour period), control (administered as a single i.p. dose at the start of the one hour period) and two doses of the enantiomer of Formula 7 (administered i.v. over the one hour period). Two hours after blockage, reperfusion was performed.
The animals were sacrificed and […] coronal sections of each brain were prepared. One in every forty sections (i.e. every […]) from the front to the occipital cortex was used to quantify the extent of the cerebral lesion. Slides were prepared using sections stained (according to the Nissl procedure) with cresyl violet and were examined under a light microscope.
Regional ischemic surface areas in the coronal sections of individual rats were determined according to the presence of cells with morphological changes. The areas of neuronal injury or infarction were measured and then added. The cortex and striatum volume were calculated for each animal (total ischemic surface area×0.8 mm (thickness)).
The mean volumes (.+−.S.E.M.) for each animal randomly assigned to the four experimental groups were compared using one-way ANOVA (one way ANOVA is a statistical method which compares 3 or more unmatched groups) followed by Dunnett's t-test (both methods incorporated in Statview 512+software, BarinPower, Calabasas, Calif., USA).

Where [3] appears, read: Formula 7 10 mg/kg i.v. over 1 hour.
Where [4] appears, read: Formula 7 100 mg/kg i.v. over 1 hour.

SMILES strings stand for the structures. Marks after values point to notes of the source that are not given here.

As to `NC(=O)OC[C@@H](O)c1ccccc1Cl` [Formula 7], the “2 Day Survival Rate” value with PC12 cells (10 µM applied once at serum withdrawal, MTS assay 2 days after serum withdrawal, control 100, serum-free 49.6) is reported as 69.4 ± 1.7^1%. For the same compound, the “7 Day Survival Rate” value in the assay on PC12 cells (10 µM at serum withdrawal and every 48 hr, MTS assay 7 days after serum withdrawal, control 100, serum-free 23.8) was 79.9 ± 4.0^2%. The “Latency to the first spontaneous seizure” value in assay [1] is on record as 150** °° days. Moreover, in assay [2] (setting [3]), the “Mean Infarct Volume ± S.E.M., Striatum” value worked out at 75.9 ± 2.6 mm^3; the “Mean Infarct Volume ± S.E.M., Cortex” value is 201.0 ± 23.9 mm^3; the “Mean Infarct Volume ± S.E.M., Total Volume” value was 276.9 ± 25.4 mm^3. Further, in assay [2] (setting [4]), the “Mean Infarct Volume ± S.E.M., Striatum” value is 63.0 ± 5.9^2 mm^3; the “Mean Infarct Volume ± S.E.M., Cortex” value was 98.8 ± 29.5^1 mm^3; the “Mean Infarct Volume ± S.E.M., Total Volume” value is 161.9 ± 34.3^1 mm^3.
